Test results as given in ChEMBL document CHEMBL1201862, “PubChem BioAssay data set” (2004).
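Cells were grown in 96-well plates and exposed to each compound for 48 hours at five concentrations; endpoints were interpolated linearly between bracketing concentrations, or set to the highest concentration if not reached. GI50: concentration for 50% inhibition of growth.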 Active and inactive are the calls of the source. Cut-off read from the data, not from the text of the source: active = GI50 up to about 1.1 µM and inactive = higher.

Assays:
Experiment in all cases: DTP human tumour cell line panel, 48 h
[1] = system: LXFL 529
[2] = system: DMS-114
[3] = system: SNB-78
[4] = system: HOP-18
[5] = system: M19-MEL
[6] = system: DMS-273
[7] = system: DLD-1
[8] = system: XF498
[9] = system: RXF 631

Row | Compound | GI50 [1] | GI50 [2] | GI50 [3] | GI50 [4] | GI50 [5] | GI50 [6] | GI50 [7] | GI50 [8] | GI50 [9]
1 | Cc1cc(C)c(N)c(C)c1N | > 100 µM (inactive) | > 100 µM (inactive) | > 100 µM (inactive) | > 100 µM (inactive) | > 100 µM (inactive) | > 100 µM (inactive) | > 100 µM (inactive) |  | 
2 | COc1cc2c(oc(=O)c3c4occc4cc(OC)c23)c2cccc(OCc3ccccc3)c12 | 64.7 µM (inactive) | > 100 µM (inactive) | 37.8 µM (inactive) | > 100 µM (inactive) | 61.5 µM (inactive) | 38.9 µM (inactive) | > 100 µM (inactive) | 42 µM (inactive) | 
3 | COc1ccc(CCN2CCC(C#N)(c3ccc(OC)c(OC)c3)CC2)cc1OC | > 100 µM (inactive) | 60.4 µM (inactive) |  | > 100 µM (inactive) | > 100 µM (inactive) | > 100 µM (inactive) | > 100 µM (inactive) | 50.2 µM (inactive) | 
4 | Cc1cc(NCCCCCCCNc2cc(C)nc3cc(N)ccc23)c2ccc(N)cc2n1 | 26.5 µM (inactive) | 1.57 µM (inactive) | 40.3 µM (inactive) |  | 32.2 µM (inactive) |  | 28.8 µM (inactive) | 17.2 µM (inactive) | 
5 | c1ccc2c(c1)n1nnnc1c1nnnn21 | > 100 µM (inactive) | 83.4 µM (inactive) | 53.6 µM (inactive) |  | > 100 µM (inactive) | > 100 µM (inactive) | > 100 µM (inactive) | > 100 µM (inactive) | > 100 µM (inactive)
6 | COC(=O)CCC(NC(=S)N/N=C(\C)c1ccc[nH]1)C(=O)OC (configuration not stated) | > 100 µM (inactive) | > 100 µM (inactive) | > 100 µM (inactive) | > 100 µM (inactive) | > 100 µM (inactive) | > 100 µM (inactive) | > 100 µM (inactive) | > 100 µM (inactive) | 
7 | O=C1CCC(=O)N1Sc1ccccc1 |  | > 100 µM (inactive) | > 100 µM (inactive) |  | > 100 µM (inactive) | > 100 µM (inactive) | > 100 µM (inactive) |  | > 100 µM (inactive)
8 | O=c1nc2occc2cn1C1CC(O)C(CO)O1 (configuration not stated) | > 100 µM (inactive) | > 100 µM (inactive) | > 100 µM (inactive) | > 100 µM (inactive) | > 100 µM (inactive) | > 100 µM (inactive) | > 100 µM (inactive) | > 100 µM (inactive) | > 100 µM (inactive)
9 | O=CN/C=C/c1cccc(O)c1 | > 100 µM (inactive) | > 100 µM (inactive) | > 100 µM (inactive) | > 100 µM (inactive) | > 100 µM (inactive) | > 100 µM (inactive) | > 100 µM (inactive) | > 100 µM (inactive) | 
10 | NC(=S)N1N=C2c3ccccc3CC[C@H]2[C@@H]1c1ccc(Cl)cc1 | 21.2 µM (inactive) | 23.9 µM (inactive) | 87.3 µM (inactive) | 18.6 µM (inactive) | 30.6 µM (inactive) | 24.7 µM (inactive) | 31.7 µM (inactive) | 26.4 µM (inactive) | 
11 | NCCCNc1ccc2c3c(nn2CCNCCO)-c2c(O)ccc(O)c2C(=O)c13 |  | 0.561 µM (active) | 1.42 µM (inactive) | 2.32 µM (inactive) | 1.5 µM (inactive) | 0.366 µM (active) | 4.08 µM (inactive) | 0.125 µM (active) | 
12 | CC(=O)OC1COC(N2CCc3cc([N+](=O)[O-])ccc32)C(OC(C)=O)C1OC(C)=O (configuration not stated) | > 100 µM (inactive) | > 100 µM (inactive) | > 100 µM (inactive) |  | > 100 µM (inactive) | > 100 µM (inactive) | > 100 µM (inactive) | 50.4 µM (inactive) | 
13 | Cn1cc(C(=O)NCCC(=N)N)cc1NC(=O)C1=[N+](C)C=C(NC(=O)c2cccc(C(=O)NC3=CC(C(=O)Nc4cc(C(=O)NCCC(=N)N)cn4C)=[N+](C)C3)c2)C1 | > 100 µM (inactive) | 70.6 µM (inactive) |  | > 100 µM (inactive) | > 100 µM (inactive) | 59.8 µM (inactive) | > 100 µM (inactive) | > 100 µM (inactive) | 
14 | COC(=O)c1ccc(N/C=C(/C#N)c2ccsc2)cc1 | 12.8 µM (inactive) | 15 µM (inactive) | 15 µM (inactive) |  | 34 µM (inactive) | 14.8 µM (inactive) | 13 µM (inactive) |  | 
15 | O=NN(CCCl)C(=O)N[C@H]1CCCC[C@@H]1Cl | > 100 µM (inactive) | 34.2 µM (inactive) |  | > 100 µM (inactive) | 39.7 µM (inactive) | 62.7 µM (inactive) | > 100 µM (inactive) | > 100 µM (inactive) | 
16 | O=C(/C(=C\c1ccccc1)CN1CCOCC1)c1ccc(Br)cc1 | 1.28 µM (inactive) | 1.78 µM (inactive) | 5.61 µM (inactive) | 1.81 µM (inactive) | 1.73 µM (inactive) | 2.88 µM (inactive) | 1.51 µM (inactive) | 4.89 µM (inactive) | 
17 | N/N=C1\C(=O)N(c2ccc(Cl)c(Cl)c2)C(=O)C1C(=O)Nc1ccc(Cl)c(Cl)c1 (configuration not stated) | 46.5 µM (inactive) | 57.5 µM (inactive) | 24.7 µM (inactive) | 21.6 µM (inactive) | > 100 µM (inactive) |  | 64 µM (inactive) |  | 59.2 µM (inactive)
18 | COc1ccc(/C=C2/C(=O)N(C(=O)c3ccccc3O)N=C2C)cc1OC | 0.303 µM (active) | 0.301 µM (active) | 0.0453 µM (active) |  | 1.29 µM (inactive) |  | 0.23 µM (active) | 1.68 µM (inactive) | 
19 | CC(=O)OC1(C#N)CC2OC1C1C2N1C(=O)c1ccccc1 (configuration not stated) | > 100 µM (inactive) | > 100 µM (inactive) | > 100 µM (inactive) |  | > 100 µM (inactive) |  | > 100 µM (inactive) | > 100 µM (inactive) | > 100 µM (inactive)
20 | CCCOC(=O)C1C(c2ccc(OC)cc2)NC(c2ccc(OC)cc2)C(C(=O)OCCC)S1(=O)=O (configuration not stated) | > 10 µM (inactive) | > 10 µM (inactive) | > 10 µM (inactive) | > 10 µM (inactive) |  | > 10 µM (inactive) | > 10 µM (inactive) | 9.18 µM (inactive) | > 10 µM (inactive)
21 | N#CC(C(=O)CCC(=O)Nc1cccc(Cl)c1)c1ccccc1 (configuration not stated) | > 100 µM (inactive) | > 100 µM (inactive) | > 100 µM (inactive) | > 100 µM (inactive) | > 100 µM (inactive) | > 100 µM (inactive) | > 100 µM (inactive) |  | > 100 µM (inactive)
22 | CCCCN[C@H]1C2C3CC4C5CC(C42)C1(C)C53 (some centres not stated) | > 100 µM (inactive) | > 100 µM (inactive) | > 100 µM (inactive) | > 100 µM (inactive) | > 100 µM (inactive) | > 100 µM (inactive) | > 100 µM (inactive) |  | 
23 | CC(C)c1cccc(C(C)C)c1NC(=O)C(=O)CC(=O)CC(c1ccccc1)c1c(O)oc2ccccc2c1=O (configuration not stated) |  | > 100 µM (inactive) |  |  |  |  | > 100 µM (inactive) |  | 
24 | CC(C(=O)N1C(=O)N(C(=O)C(C)C(O)c2ccccc2)C2CCCCC21)C(O)c1ccccc1 (configuration not stated) | 44.1 µM (inactive) |  | > 100 µM (inactive) |  | 83.8 µM (inactive) | > 100 µM (inactive) |  | 79.6 µM (inactive) | 
25 | C=CCN(N=O)C(=O)NCCCCC(NC(C)=O)C(=O)NCc1ccccc1 (configuration not stated) | > 100 µM (inactive) | > 100 µM (inactive) |  | 80.7 µM (inactive) | > 100 µM (inactive) | > 100 µM (inactive) |  | > 100 µM (inactive) | > 100 µM (inactive)
26 | COc1ccc(C2=C(Cl)c3cc(OC)c(OC)cc3C2OC)cc1OC (configuration not stated) | 52.7 µM (inactive) | 14.2 µM (inactive) | > 100 µM (inactive) | > 100 µM (inactive) | > 100 µM (inactive) | 27.4 µM (inactive) | 17.9 µM (inactive) | > 100 µM (inactive) | 
